The target in this test is T1, HCV1b NS5B polymerase delta 21 (Hepatitis C virus genotype 1b, UniProt P26663).
T1 construct: purified HCV1b NS5B polymerase delta 21
Briefly: RNA-Dependent RNA HCV NS5B (Polymerase) Assay and IC50 Determination. In kind it is biochemical. A digest of the protocol:
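Purified NS5B Δ21 (0.6 μg) with polyA:U16 template, 10 μM UTP plus α-32P UTP in Tris-HCl pH 7.5, 5 mM MgCl2, 0.5% Triton X-100, 60 min at 23°C with varied compound concentrations. Radiolabelled RNA captured on filters, quantified by phosphorimaging; IC50 from triplicate assays.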

Molecules are shown by their SMILES.

T1 sequence (P26663 2420-2989): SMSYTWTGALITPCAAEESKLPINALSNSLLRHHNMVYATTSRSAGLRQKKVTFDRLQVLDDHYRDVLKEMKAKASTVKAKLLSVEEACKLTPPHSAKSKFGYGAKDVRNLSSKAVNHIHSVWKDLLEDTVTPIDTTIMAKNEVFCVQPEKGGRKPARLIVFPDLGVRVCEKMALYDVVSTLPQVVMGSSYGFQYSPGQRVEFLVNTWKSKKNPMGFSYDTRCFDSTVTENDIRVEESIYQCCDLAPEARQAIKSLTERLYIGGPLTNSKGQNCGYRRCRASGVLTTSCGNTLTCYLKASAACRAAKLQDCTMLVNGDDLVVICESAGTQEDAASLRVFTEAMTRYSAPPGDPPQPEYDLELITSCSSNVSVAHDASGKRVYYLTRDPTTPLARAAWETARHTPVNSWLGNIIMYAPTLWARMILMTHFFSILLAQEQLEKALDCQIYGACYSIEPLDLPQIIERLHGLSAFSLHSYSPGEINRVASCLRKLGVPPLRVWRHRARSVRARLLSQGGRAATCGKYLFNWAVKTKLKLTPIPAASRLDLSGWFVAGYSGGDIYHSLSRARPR

Broadly, the IC50 is the concentration that gives 50% inhibition. A lower IC50 goes with greater potency. Regarding `CC1CCC(C2=C(c3cc(-c4ccccc4)sc3C(=O)O)CCN(CCC(=O)O)C2)CC1` (centres unmarked) [Example 083, 3-[1-(2-Carboxy-ethyl)-5-(4-methyl-cyclohexyl)-1,2,3,6-tetrahydro-pyridin-4-yl]-5-phenyl-thiophene-2-carboxylic acid], the IC50 was in the range of 3 to 10 µM.
In turn, `CC1CCC(C2=C(c3cc(-c4ccccc4)sc3C(=O)O)CCN(C(N)=O)C2)CC1` (centres unmarked) [Example 084, 3-[1-Carbamoyl-5-(4-methyl-cyclohexyl)-1,2,3,6-tetrahydro-pyridin-4-yl]-5-phenyl-thiophene-2-carboxylic acid] displayed an IC50 of less than 3 µM.
As to `CCNC(=O)N1CCC(c2cc(-c3ccccc3)sc2C(=O)O)=C(C2CCC(C)CC2)C1` (centres unmarked) [Example 085, 3-[1-Ethylcarbamoyl-5-(4-methyl-cyclohexyl)-1,2,3,6-tetrahydro-pyridin-4-yl]-5-phenyl-thiophene-2-carboxylic acid], the IC50 lay within 3 to 10 µM.
In turn, `CC1CCC(C2=C(c3cc(-c4ccccc4)sc3C(=O)O)CCN(Cc3ccc(Cl)cc3)C2)CC1` (centres unmarked) [Example 086, 3-[1-(4-Chloro-benzyl)-5-(4-methyl-cyclohexyl)-1,2,3,6-tetrahydro-pyridin-4-yl]-5-phenyl-thiophene-2-carboxylic acid] displayed an IC50 of 3 to 10 µM.
For `CC1CCC(C2=C(c3cc(-c4ccccc4)sc3C(=O)O)CCN(Cc3ccccn3)C2)CC1` (centres unmarked) [Example 087, 3-[5-(4-Methyl-cyclohexyl)-1-pyridin-2-ylmethyl-1,2,3,6-tetrahydro-pyridin-4-yl]-5-phenyl-thiophene-2-carboxylic acid] the value was less than 3 µM.
`Cc1cc(C)n2nc(CN3CCC(c4cc(-c5ccccc5)sc4C(=O)O)=C(C4CCC(C)CC4)C3)nc2n1` (centres unmarked) [Example 088, 3-[1-(5,7-Dimethyl-[1,2,4]triazolo[1,5-a]pyrimidin-2-ylmethyl)-5-(4-methyl-cyclohexyl)-1,2,3,6-tetrahydro-pyridin-4-yl]-5-phenyl-thiophene-2-carboxylic acid] returned an IC50 of less than 3 µM.
For the compound `CC1CCC(C2=C(c3cc(-c4ccccc4)sc3C(=O)O)CCN(Cc3cccnc3)C2)CC1` (centres unmarked) [Example 089, 3-[5-(4-Methyl-cyclohexyl)-1-pyridin-3-ylmethyl-1,2,3,6-tetrahydro-pyridin-4-yl]-5-phenyl-thiophene-2-carboxylic acid], the IC50 was less than 3 µM.
In turn, `CC1CCC(C2=C(c3cc(-c4ccccc4)sc3C(=O)O)CCN(Cc3ccncc3)C2)CC1` (centres unmarked) [Example 090, 3-[5-(4-Methyl-cyclohexyl)-1-pyridin-4-ylmethyl-1,2,3,6-tetrahydro-pyridin-4-yl]-5-phenyl-thiophene-2-carboxylic acid] showed an IC50 of less than 3 µM.
Turning to `Cc1cc(C)n2nc(CCCN3CCC(c4cc(-c5ccccc5)sc4C(=O)O)=C(C4CCC(C)CC4)C3)nc2n1` (centres unmarked) [Example 091, 3-[1-[3-(5,7-Dimethyl-[1,2,4]triazolo[1,5-a]pyrimidin-2-yl)-propyl]-5-(4-methyl-cyclohexyl)-1,2,3,6-tetrahydro-pyridin-4-yl]-5-phenyl-thiophene-2-carboxylic acid], the IC50 was less than 3 µM.
Compound `CC1CCC(C2=C(c3cc(-c4ccccc4)sc3C(=O)O)CCN(Cc3nc4ncccn4n3)C2)CC1` (centres unmarked) [Example 092, 3-[5-(4-Methyl-cyclohexyl)-1-[1,2,4]triazolo[1,5-a]pyrimidin-2-ylmethyl-1,2,3,6-tetrahydro-pyridin-4-yl]-5-phenyl-thiophene-2-carboxylic acid] returned a concentration for half-maximal inhibition (IC50) of 3 to 10 µM.
In turn, `CC1CCC(C2=C(c3cc(-c4ccccc4)sc3C(=O)O)CCN(C(=O)Cc3ccncc3)C2)CC1` (centres unmarked) [Example 093, 3-[5-(4-Methyl-cyclohexyl)-1-(2-pyridin-4-yl-acetyl)-1,2,3,6-tetrahydro-pyridin-4-yl]-5-phenyl-thiophene-2-carboxylic acid] returned an IC50 greater than 10 µM.
`CC1CCC(C2=C(c3cc(-c4ccccc4)sc3C(=O)O)CCN(C(=O)c3ccncc3)C2)CC1` (centres unmarked) [Example 094, 3-[5-(4-Methyl-cyclohexyl)-1-(pyridine-4-carbonyl)-1,2,3,6-tetrahydro-pyridin-4-yl]-5-phenyl-thiophene-2-carboxylic acid] showed an IC50 of 3 to 10 µM.
For `CC1CCC(C2=C(c3cc(-c4ccccc4)sc3C(=O)O)CCN(Cc3cn(C)c4ccccc34)C2)CC1` (centres unmarked) [Example 095, 3-[5-(4-Methyl-cyclohexyl)-1-(1-methyl-1H-indol-3-ylmethyl)-1,2,3,6-tetrahydro-pyridin-4-yl]-5-phenyl-thiophene-2-carboxylic acid] the value was 3 to 10 µM; for `CC1CCC(C2=C(c3cc(-c4ccccc4)sc3C(=O)O)CCN(C(=O)Cc3ccc4ccccc4c3)C2)CC1` (centres unmarked) [Example 096, 3-[5-(4-Methyl-cyclohexyl)-1-(2-naphthalen-2-yl-acetyl)-1,2,3,6-tetrahydro-pyridin-4-yl]-5-phenyl-thiophene-2-carboxylic acid], greater than 10 µM.
Turning to `CC1CCC(C2=C(c3cc(-c4ccccc4)sc3C(=O)O)CCN(C(=O)Cc3cccc4ccccc34)C2)CC1` (centres unmarked) [Example 097, 3-[5-(4-Methyl-cyclohexyl)-1-(2-naphthalen-1-yl-acetyl)-1,2,3,6-tetrahydro-pyridin-4-yl]-5-phenyl-thiophene-2-carboxylic acid], the IC50 was greater than 10 µM.
Compound `CC1CCC(C2=C(c3cc(-c4ccccc4)sc3C(=O)O)CCN(C(=O)c3cn(C)c4ccccc34)C2)CC1` (centres unmarked) [Example 098, 3-[5-(4-Methyl-cyclohexyl)-1-(1-methyl-1H-indole-3-carbonyl)-1,2,3,6-tetrahydro-pyridin-4-yl]-5-phenyl-thiophene-2-carboxylic acid] displayed an IC50 greater than 10 µM.
For `CC1CCC(C2=C(c3cc(-c4ccccc4)sc3C(=O)O)CCN(C(=O)c3nn(C)c4ccccc34)C2)CC1` (centres unmarked) [Example 099, 3-[5-(4-Methyl-cyclohexyl)-1-(1-methyl-1H-indazole-3-carbonyl)-1,2,3,6-tetrahydro-pyridin-4-yl]-5-phenyl-thiophene-2-carboxylic acid] the value was 3 to 10 µM; for `CCOC(=O)c1sc(-c2ccc(NC(=O)c3cscn3)cc2)cc1C1=C(C2CCC(C)CC2)CN(C)CC1` (centres unmarked) [Example 100, 3-[1-Methyl-5-(4-methyl-cyclohexyl)-1,2,3,6-tetrahydro-pyridin-4-yl]-5-{4-[(thiazole-4-carbonyl)-amino]-phenyl}-thiophene-2-carboxylic acid ethyl ester], greater than 10 µM.
The compound `CC1CCC(C2=C(c3cc(-c4ccc(NC(=O)c5cscn5)cc4)sc3C(=O)OCOC(=O)C(C)(C)C)CCN(C)C2)CC1` (centres unmarked) [Example 101, 3-[1-Methyl-5-(4-methyl-cyclohexyl)-1,2,3,6-tetrahydro-pyridin-4-yl]-5-{4-[(thiazole-4-carbonyl)-amino]-phenyl}-thiophene-2-carboxylic acid 2,2-dimethyl-propionyloxymethyl ester] showed an IC50 greater than 10 µM.
For `CC(=O)OCOC(=O)c1sc(-c2ccc(NC(=O)c3cscn3)cc2)cc1C1=C(C2CCC(C)CC2)CN(C)CC1` (centres unmarked) [Example 102, 3-[1-Methyl-5-(4-methyl-cyclohexyl)-1,2,3,6-tetrahydro-pyridin-4-yl]-5-{4-[(thiazole-4-carbonyl)-amino]-phenyl}-thiophene-2-carboxylic acid acetoxymethyl ester] the value was greater than 10 µM; for `CC1CCC(C2=C(c3cc(-c4ccc(NC(=O)c5cscn5)cc4)sc3C(=O)OCCN(C)C)CCN(C)C2)CC1` (centres unmarked) [Example 103, 3-[1-Methyl-5-(4-methyl-cyclohexyl)-1,2,3,6-tetrahydro-pyridin-4-yl]-5-{4-[(thiazole-4-carbonyl)-amino]-phenyl}-thiophene-2-carboxylic acid 2-dimethylamino-ethyl ester], less than 3 µM.
Compound `CCOC(=O)OC(C)OC(=O)c1sc(-c2ccc(NC(=O)c3cscn3)cc2)cc1C1=C(C2CCC(C)CC2)CN(C)CC1` (centres unmarked) [Example 104, 3-[1-Methyl-5-(4-methyl-cyclohexyl)-1,2,3,6-tetrahydro-pyridin-4-yl]-5-{4-[(thiazole-4-carbonyl)-amino]-phenyl}-thiophene-2-carboxylic acid 1-ethoxycarbonyloxy-ethyl ester] gave an IC50 greater than 10 µM.
Compound `CCCC(=O)OCOC(=O)c1sc(-c2ccc(NC(=O)c3cscn3)cc2)cc1C1=C(C2CCC(C)CC2)CN(C)CC1` (centres unmarked) [Example 105, 3-[1-Methyl-5-(4-methyl-cyclohexyl)-1,2,3,6-tetrahydro-pyridin-4-yl]-5-{4-[(thiazole-4-carbonyl)-amino]-phenyl}-thiophene-2-carboxylic acid butyryloxymethyl ester] returned an IC50 of 3 to 10 µM.
The compound `CC1CCC(C2=C(c3cc(-c4ccc(NC(=O)c5cscn5)cc4)sc3C(=O)OCOC(=O)OC(C)C)CCN(C)C2)CC1` (centres unmarked) [Example 106, 3-[1-Methyl-5-(4-methyl-cyclohexyl)-1,2,3,6-tetrahydro-pyridin-4-yl]-5-{4-[(thiazole-4-carbonyl)-amino]-phenyl}-thiophene-2-carboxylic acid isopropoxycarbonyloxymethyl ester] returned an IC50 greater than 10 µM.
The compound `CCOC(=O)OCOC(=O)c1sc(-c2ccc(NC(=O)c3cscn3)cc2)cc1C1=C(C2CCC(C)CC2)CN(C)CC1` (centres unmarked) [Example 107, 3-[1-Methyl-5-(4-methyl-cyclohexyl)-1,2,3,6-tetrahydro-pyridin-4-yl]-5-{4-[(thiazole-4-carbonyl)-amino]-phenyl}-thiophene-2-carboxylic acid ethoxycarbonyloxymethyl ester] returned an IC50 of less than 3 µM.
As for `Cc1oc(=O)oc1COC(=O)c1sc(-c2ccc(NC(=O)c3cscn3)cc2)cc1C1=C(C2CCC(C)CC2)CN(C)CC1` (centres unmarked) [Example 108, 3-[1-Methyl-5-(4-methyl-cyclohexyl)-1,2,3,6-tetrahydro-pyridin-4-yl]-5-{4-[(thiazole-4-carbonyl)-amino]-phenyl}-thiophene-2-carboxylic acid 5-methyl-2-oxo-[1,3]-dioxol-4-ylmethyl ester], the IC50 is less than 3 µM.
